Measured values from patent US20140193531A1, “Aqueous extracts of deschampsia antarctica” (Uxmal S.A, priority 2012, published 2014).

Experiments:
[1] = tested on: IL-6 secretion in TNFα-stimulated 3T3-L1 adipocytes; test: TNFα-stimulated IL-6 secretion in 3T3-L1 adipocytes; assay type: cell-based, Mouse; settings: data not shown
Method: Post-differentiation, D6/D7 adipocytes were treated with test material 4 h prior to the addition of TNFα at a final concentration of 10 ng/mL. Following overnight incubation of approximately 18 h, the supernatant media were removed and assayed for IL-6. IL-6 secreted into the medium in response to TNFα stimulation was quantified using the Quantikine® Mouse IL-6 Immunoassay kit Immunoassay kit with no modifications (R&D Systems, Minneapolis, Minn.). Experiments assessing the anti-inflammatory activity of the test samples were repeated a minimum of 2 independent times. For statistical analysis, the effects of test materials IL-6 secretion were normalized, respectively, to the TNFα positive control to generate IL-6 indexes. Differences among the treatments were determined by analysis of variance and student's least significant difference test without correction for multiple comparisons; the nominal 5% probability of a type I error was used. Ninety-five percent CI were computed using the ANOVA error mean square estimate of variance (Excel®, Microsoft, Redmond, Wash.).

HaCaT cells = assay type: cell-based, human
Method: For this assay, 100,000 cells were seeded in a 24-well plate at a total volume of 500 ul in a complete culture medium. After incubating for 24 hours at 37° C. in an atmosphere of 5% CO2, the cells were irradiated with different concentrations of UV light in an irradiation system inside a type 2 biosafety laminar flow hood. The system consisted of 2 florescent tubes, one UVA-emitting 36 W PL-L (320-400 nm) and one UVB-emitting 20 W TL (290-320 nm) (Philips, Eindhoven, the Netherlands). Both tubes were located 5 cm from the bottom of the well to produce homogeneous irradiation intensity. The irradiation intensity was monitored with radiometers for UVB (Solarmeter 6.2 digital UVB radiometer, Solartech Inc., Harrison Township, Mich.) and UVA (Tecpel, CHY-732, Taiwan). The HaCaT cells were irradiated at different time intervals (Table 5) to reach the different accumulative doses of UVA and UVB (Gao et al. 2007). After irradiation with UVA+UVB light, the cells were incubated for 24 hours and the viability of the cells was measured with the MTS assay.
In this assay, 100,000 cells were seeded in a 24-well plate. After incubating for 24 hours at 37° C. in an atmosphere of 5% de CO2, the cells were washed with PBS and incubated with AEDA doses of between 4.5 and 0.5 mg/ml previously diluted in PBS. […]

| SMILES | increase of IL-6 secretion above the TNFα positive control [1] | effect on irradiated keratinocytes at higher doses (HaCaT cells) |
| --- | --- | --- |
| C=C[C@@]1(C)CC(=O)[C@]2(O)[C@@]3(C)[C@@H](O)CCC(C)(C)[C@@H]3[C@H](O)[C@H](OC(C)=O)[C@@]2(C)O1 [Forskolin] | over 100% | – |
| COc1cc(/C=C/C(=O)O)ccc1O [ferulic acid] | – | possible photocytotoxic effect |
